Assay [1] has as its target T1, Serine/threonine-protein kinase D2 (Homo sapiens) (UniProt Q9BZL6).
T1 sequence (whole entry): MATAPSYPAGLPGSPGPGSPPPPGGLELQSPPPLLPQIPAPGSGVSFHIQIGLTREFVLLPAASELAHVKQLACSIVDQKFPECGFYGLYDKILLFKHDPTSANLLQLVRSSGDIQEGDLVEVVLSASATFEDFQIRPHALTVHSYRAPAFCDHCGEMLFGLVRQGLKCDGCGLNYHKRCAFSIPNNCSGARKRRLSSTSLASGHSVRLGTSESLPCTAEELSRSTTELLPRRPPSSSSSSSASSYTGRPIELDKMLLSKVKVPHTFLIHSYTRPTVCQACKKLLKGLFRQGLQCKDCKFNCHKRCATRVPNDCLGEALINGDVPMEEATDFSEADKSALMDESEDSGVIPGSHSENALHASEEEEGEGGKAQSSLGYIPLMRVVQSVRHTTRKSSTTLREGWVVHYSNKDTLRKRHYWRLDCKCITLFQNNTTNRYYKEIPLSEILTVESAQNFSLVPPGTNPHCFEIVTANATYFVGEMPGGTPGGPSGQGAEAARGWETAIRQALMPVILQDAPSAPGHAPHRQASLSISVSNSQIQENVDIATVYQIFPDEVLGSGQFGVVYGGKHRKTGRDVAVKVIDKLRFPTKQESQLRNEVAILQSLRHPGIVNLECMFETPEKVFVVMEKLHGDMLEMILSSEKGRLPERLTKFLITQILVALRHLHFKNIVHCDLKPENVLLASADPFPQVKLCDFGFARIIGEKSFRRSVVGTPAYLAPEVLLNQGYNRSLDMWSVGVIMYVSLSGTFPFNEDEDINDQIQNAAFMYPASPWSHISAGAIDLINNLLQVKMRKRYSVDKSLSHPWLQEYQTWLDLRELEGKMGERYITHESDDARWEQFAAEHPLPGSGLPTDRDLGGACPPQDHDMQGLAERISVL
Briefly: Inhibition of PKD2 at 10 uM by colorimetric analysis.

For assay [2], the target named is Platelet-derived growth factor receptor alpha (Homo sapiens) (UniProt P16234). Briefly: Inhibition of PDGFRalpha at 10 uM by colorimetric analysis.
The target of assay [3] is MAP kinase-activated protein kinase 2 (Homo sapiens) (UniProt P49137). Briefly: Inhibition of MAPKAPK2 at 10 uM by colorimetric analysis.
Assay [4] has as its target Tyrosine-protein kinase SYK (Homo sapiens) (UniProt P43405). Briefly: Inhibition of SYK at 10 uM by colorimetric analysis.
For assay [5], the target named is 5'-AMP-activated protein kinase subunit gamma-1 (Homo sapiens) (UniProt P54619). Briefly: Inhibition of AMPKgamma1 at 10 uM by colorimetric analysis.
In assay [6] the target is Proto-oncogene tyrosine-protein kinase Src (Homo sapiens) (UniProt P12931). Briefly: Inhibition of SRC at 10 uM by colorimetric analysis.
The target in assay [7] is Protein-tyrosine kinase 2-beta (Homo sapiens) (UniProt Q14289). Put plainly: Inhibition of PYK2 at 10 uM by colorimetric analysis.
Assay [8] deals with Hepatocyte growth factor receptor (Homo sapiens) (UniProt P08581). Put plainly: Inhibition of MET at 10 uM by colorimetric analysis.
The target of assay [9] is Receptor-type tyrosine-protein kinase FLT3 (Homo sapiens) (UniProt P36888). Briefly: Inhibition of FLT3 at 10 uM by colorimetric analysis.
Assay [10] deals with Tyrosine-protein kinase ABL1 (Homo sapiens) (UniProt P00519). Briefly: Inhibition of Abl at 10 uM by colorimetric analysis.
Assay [11] has as its target Serine/threonine-protein kinase pim-1 (Homo sapiens) (UniProt P11309). Put plainly: Inhibition of PIM1 at 10 uM by colorimetric analysis.
Assay [12] addresses T2, Tyrosine-protein kinase ITK/TSK (Homo sapiens) (UniProt Q08881).
T2 sequence (whole entry): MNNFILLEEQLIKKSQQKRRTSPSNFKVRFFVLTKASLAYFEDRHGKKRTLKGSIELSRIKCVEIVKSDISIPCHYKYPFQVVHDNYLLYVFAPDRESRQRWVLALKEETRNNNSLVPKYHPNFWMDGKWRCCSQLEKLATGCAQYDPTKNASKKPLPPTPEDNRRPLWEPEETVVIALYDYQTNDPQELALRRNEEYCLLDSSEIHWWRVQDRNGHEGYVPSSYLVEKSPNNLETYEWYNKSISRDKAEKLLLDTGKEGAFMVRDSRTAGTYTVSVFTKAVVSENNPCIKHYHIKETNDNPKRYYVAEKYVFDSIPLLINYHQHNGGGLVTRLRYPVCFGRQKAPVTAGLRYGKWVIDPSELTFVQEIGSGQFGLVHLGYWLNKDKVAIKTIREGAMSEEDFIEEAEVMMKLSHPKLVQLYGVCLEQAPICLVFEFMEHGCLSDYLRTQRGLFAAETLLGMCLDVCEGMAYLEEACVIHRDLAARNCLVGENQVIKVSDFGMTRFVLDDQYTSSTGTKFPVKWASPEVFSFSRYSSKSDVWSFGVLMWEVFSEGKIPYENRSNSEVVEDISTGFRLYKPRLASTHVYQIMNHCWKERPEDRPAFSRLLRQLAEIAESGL
Put plainly: Inhibition of ITK at 10 uM by colorimetric analysis.

The target of assay [13] is Cyclin-dependent kinase 2/cyclin A (Homo sapiens) (UniProt P24941+P20248+P78396). Put plainly: Inhibition of CDK2/CycA2 at 10 uM by colorimetric analysis. In kind it is protein-complex assay.
Assay [14] concerns the target High affinity nerve growth factor receptor (Homo sapiens) (UniProt P04629). Put plainly: Inhibition of TRKA at 10 uM by colorimetric analysis.
Assay [15] concerns the target Rho-associated protein kinase 1 (Homo sapiens) (UniProt Q13464). Briefly: Inhibition of ROCK1 at 10 uM by colorimetric analysis.
In assay [16] the target is Tyrosine-protein kinase Lck (Homo sapiens) (UniProt P06239). Put plainly: Inhibition of LCK at 10 uM by colorimetric analysis.
Assay [17] has as its target T3, Serine/threonine-protein kinase Sgk1 (Homo sapiens) (UniProt O00141).
T3 sequence (whole entry): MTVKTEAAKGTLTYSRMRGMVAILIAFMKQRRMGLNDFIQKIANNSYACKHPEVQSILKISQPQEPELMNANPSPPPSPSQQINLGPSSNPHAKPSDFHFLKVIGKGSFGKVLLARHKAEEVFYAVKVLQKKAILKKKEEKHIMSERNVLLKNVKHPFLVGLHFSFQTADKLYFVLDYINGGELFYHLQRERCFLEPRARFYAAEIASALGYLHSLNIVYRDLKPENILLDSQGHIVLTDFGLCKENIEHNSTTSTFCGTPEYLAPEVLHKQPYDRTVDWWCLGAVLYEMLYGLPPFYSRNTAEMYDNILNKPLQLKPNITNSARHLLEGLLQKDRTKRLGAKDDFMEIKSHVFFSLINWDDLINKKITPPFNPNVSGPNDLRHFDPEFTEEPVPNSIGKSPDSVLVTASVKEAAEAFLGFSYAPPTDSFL
Put plainly: Inhibition of SGK at 10 uM by colorimetric analysis.

In assay [18] the target is Glycogen synthase kinase-3 beta (Homo sapiens, UniProt P49841). Put plainly: Inhibition of GSK3-beta at 10 uM by colorimetric analysis.

Structures are written as SMILES. Activity calls are given as the source filed them. The calls are words filed in the database; no cut-off is given here.

Chain of Tyrosine-protein kinase Lck (Homo sapiens) (P06239 2-509 limits assumed): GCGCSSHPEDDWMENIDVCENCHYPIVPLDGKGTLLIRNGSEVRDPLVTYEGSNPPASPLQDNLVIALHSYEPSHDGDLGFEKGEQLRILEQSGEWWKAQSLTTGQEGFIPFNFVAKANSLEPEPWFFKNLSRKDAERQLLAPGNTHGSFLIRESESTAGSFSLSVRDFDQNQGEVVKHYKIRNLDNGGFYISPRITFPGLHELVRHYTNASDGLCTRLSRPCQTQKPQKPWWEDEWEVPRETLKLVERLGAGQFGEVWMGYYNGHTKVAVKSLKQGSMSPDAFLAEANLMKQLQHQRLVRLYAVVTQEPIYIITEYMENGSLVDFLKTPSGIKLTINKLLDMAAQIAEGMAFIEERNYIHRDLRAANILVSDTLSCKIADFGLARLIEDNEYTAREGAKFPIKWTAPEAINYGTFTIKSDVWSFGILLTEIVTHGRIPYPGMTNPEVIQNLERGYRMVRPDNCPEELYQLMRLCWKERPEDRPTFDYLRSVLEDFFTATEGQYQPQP
Chain of Serine/threonine-protein kinase pim-1 (Homo sapiens) (P11309 whole entry, looked up): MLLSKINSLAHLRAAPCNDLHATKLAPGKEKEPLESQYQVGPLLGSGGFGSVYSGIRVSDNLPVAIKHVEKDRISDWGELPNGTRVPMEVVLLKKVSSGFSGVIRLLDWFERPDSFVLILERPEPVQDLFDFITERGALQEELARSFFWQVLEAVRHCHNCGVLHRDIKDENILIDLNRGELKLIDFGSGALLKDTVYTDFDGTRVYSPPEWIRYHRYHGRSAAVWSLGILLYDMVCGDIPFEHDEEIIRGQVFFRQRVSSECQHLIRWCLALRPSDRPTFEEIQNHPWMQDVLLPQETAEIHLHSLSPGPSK
Chain of Protein-tyrosine kinase 2-beta (Homo sapiens) (Q14289 whole entry, looked up): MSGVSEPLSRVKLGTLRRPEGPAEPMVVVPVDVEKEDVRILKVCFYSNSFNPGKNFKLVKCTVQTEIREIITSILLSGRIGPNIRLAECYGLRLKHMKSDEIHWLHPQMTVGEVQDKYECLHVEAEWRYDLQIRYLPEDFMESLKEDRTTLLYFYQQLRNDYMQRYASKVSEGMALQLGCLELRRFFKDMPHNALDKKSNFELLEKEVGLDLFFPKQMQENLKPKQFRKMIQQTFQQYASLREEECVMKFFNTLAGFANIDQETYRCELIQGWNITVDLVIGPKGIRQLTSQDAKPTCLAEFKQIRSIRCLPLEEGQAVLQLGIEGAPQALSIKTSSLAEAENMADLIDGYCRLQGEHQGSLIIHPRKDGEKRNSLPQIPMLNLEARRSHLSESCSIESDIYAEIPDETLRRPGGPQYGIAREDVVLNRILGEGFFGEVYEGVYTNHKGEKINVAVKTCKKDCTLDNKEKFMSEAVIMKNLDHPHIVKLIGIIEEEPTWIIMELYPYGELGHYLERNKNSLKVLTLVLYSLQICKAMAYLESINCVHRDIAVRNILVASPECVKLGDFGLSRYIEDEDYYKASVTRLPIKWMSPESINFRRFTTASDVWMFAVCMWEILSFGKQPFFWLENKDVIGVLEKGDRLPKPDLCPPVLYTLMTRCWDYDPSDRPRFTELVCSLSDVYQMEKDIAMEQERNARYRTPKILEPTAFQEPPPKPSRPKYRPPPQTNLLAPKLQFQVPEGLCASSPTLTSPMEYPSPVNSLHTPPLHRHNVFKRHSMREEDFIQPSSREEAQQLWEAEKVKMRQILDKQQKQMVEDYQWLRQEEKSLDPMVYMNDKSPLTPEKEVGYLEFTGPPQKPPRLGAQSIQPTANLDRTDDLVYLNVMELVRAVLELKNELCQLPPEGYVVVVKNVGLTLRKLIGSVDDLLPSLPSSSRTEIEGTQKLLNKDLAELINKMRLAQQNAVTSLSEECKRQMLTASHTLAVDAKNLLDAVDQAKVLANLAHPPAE
Chain of 5'-AMP-activated protein kinase subunit gamma-1 (Homo sapiens) (P54619 whole entry): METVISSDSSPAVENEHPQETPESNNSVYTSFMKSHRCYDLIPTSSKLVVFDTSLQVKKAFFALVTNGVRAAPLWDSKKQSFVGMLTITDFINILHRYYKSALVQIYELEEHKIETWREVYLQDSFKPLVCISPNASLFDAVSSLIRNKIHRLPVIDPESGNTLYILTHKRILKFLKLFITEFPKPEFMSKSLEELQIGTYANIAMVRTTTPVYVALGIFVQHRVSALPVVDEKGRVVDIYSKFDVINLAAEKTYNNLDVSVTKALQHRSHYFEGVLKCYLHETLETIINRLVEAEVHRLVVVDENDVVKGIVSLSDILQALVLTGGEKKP
Chain of High affinity nerve growth factor receptor (Homo sapiens) (P04629 33-796 limits assumed): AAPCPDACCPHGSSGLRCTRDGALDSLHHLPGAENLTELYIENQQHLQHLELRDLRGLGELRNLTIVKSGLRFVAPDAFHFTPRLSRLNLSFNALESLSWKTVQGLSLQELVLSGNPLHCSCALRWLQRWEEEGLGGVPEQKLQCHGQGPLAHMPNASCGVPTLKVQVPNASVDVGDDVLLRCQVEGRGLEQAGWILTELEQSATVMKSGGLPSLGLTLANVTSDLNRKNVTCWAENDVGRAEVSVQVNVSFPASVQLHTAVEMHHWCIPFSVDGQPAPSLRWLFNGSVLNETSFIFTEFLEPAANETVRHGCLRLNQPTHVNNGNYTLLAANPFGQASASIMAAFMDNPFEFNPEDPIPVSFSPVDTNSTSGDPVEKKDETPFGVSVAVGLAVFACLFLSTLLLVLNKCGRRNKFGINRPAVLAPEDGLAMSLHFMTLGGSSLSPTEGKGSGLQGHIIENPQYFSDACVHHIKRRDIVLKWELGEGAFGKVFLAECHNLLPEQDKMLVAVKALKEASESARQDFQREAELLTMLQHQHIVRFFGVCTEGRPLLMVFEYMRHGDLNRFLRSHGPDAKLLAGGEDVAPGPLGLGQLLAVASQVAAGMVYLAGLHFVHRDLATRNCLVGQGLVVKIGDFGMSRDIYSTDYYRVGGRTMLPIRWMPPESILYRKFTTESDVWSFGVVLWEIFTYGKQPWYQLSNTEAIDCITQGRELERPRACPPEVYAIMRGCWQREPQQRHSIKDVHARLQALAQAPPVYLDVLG
Chain of Rho-associated protein kinase 1 (Homo sapiens) (Q13464 2-1354 limits assumed): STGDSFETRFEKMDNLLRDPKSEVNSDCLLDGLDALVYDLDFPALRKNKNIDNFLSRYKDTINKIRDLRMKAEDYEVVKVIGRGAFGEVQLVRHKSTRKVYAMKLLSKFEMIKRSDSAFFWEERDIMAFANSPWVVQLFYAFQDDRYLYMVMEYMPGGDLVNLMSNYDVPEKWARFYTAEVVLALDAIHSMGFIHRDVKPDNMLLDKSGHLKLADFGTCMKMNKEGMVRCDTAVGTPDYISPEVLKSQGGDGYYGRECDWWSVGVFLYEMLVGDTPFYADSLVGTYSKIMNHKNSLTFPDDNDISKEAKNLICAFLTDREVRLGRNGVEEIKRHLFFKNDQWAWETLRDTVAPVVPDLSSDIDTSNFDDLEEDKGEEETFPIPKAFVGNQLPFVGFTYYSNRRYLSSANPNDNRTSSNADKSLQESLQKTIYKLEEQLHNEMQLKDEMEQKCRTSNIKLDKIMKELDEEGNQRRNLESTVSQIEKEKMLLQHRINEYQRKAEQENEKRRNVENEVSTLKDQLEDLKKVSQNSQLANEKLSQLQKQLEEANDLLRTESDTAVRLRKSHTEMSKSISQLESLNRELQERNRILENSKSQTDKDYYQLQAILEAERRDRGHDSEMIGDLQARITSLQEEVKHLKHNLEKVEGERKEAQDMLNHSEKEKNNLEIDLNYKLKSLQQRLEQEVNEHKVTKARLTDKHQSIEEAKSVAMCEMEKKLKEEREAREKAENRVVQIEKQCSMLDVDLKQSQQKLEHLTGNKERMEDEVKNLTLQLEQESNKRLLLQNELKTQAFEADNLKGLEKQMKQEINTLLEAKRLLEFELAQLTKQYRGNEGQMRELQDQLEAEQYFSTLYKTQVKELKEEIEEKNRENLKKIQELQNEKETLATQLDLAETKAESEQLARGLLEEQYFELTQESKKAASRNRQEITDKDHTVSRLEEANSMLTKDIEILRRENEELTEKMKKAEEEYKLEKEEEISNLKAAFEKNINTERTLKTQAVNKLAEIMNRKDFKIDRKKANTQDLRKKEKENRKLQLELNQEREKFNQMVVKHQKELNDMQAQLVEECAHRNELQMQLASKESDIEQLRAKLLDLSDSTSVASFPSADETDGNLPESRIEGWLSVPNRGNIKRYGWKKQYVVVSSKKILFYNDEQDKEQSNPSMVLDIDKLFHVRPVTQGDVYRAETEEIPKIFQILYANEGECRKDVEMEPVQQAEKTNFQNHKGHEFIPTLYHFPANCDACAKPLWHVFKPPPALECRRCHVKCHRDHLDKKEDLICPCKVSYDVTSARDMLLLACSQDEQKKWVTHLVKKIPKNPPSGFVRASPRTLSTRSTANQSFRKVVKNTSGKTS
Chain of Glycogen synthase kinase-3 beta (P49841 whole entry, looked up): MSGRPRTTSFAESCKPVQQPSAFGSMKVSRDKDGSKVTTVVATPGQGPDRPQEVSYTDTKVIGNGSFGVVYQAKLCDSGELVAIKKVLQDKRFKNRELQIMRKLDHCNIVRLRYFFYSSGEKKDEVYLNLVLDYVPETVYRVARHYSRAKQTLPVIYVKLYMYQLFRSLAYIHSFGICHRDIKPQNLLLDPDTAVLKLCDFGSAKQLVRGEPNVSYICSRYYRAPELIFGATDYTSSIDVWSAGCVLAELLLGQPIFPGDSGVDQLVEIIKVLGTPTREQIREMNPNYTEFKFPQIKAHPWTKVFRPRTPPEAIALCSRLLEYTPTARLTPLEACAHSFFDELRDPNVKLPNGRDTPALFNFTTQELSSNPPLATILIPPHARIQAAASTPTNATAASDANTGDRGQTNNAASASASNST

For the molecule `Clc1ccc(-n2cc(-c3ccncc3)nn2)cc1`, the inhibition result in assay [1], in [3], in [5], in [9], in [11] and in assay [13] was “Active” each time. For the same molecule, the inhibition entry in assay [15], in assay [17] and in [18] was “Active” in each case. For the same molecule, the inhibition result in assay [2], in assay [4], in assay [6], in assay [7], in [8] and in assay [10] was “inactive” in each case. The inhibition result in [12], in assay [14] and in [16] was “inactive” each time.

Turning to `Clc1ccc(-n2nncc2-c2ccncc2)cc1`, the inhibition result in [1], in [3], in [5], in [9], in [11] and in [13] was “Active” each time. Moreover, the inhibition result in assay [15], in assay [17] and in assay [18] was “Active” throughout. Further, the inhibition result in assay [2], in [4], in assay [6], in assay [7], in [8] and in [10] was “inactive” each time. For the same molecule, the inhibition entry in [12], in [14] and in assay [16] was “inactive” in each case.

Turning to `Clc1cccc(-n2nncc2-c2ccncc2)c1`, the inhibition result in assay [1], in [3], in assay [5], in [9], in assay [11] and in assay [13] was “Active” each time. The inhibition result in [15], in [17] and in assay [18] was “Active” throughout. Further, the inhibition result in assay [2], in [4], in assay [6], in assay [7], in assay [8] and in assay [10] was “inactive” each time. Further, the inhibition entry in assay [12], in [14] and in assay [16] was “inactive” in each case.

`Clc1cccc(-n2cc(-c3ccncc3)nn2)c1`: the inhibition entry in [1], in [3], in [5], in [9], in assay [11] and in [13] was “Active” in each case. Further, the inhibition result in assay [15], in assay [17] and in assay [18] was “Active” throughout. Besides, the inhibition entry in assay [2], in assay [4], in assay [6], in assay [7], in [8] and in assay [10] was “inactive” in each case. Moreover, the inhibition result in [12], in [14] and in assay [16] was “inactive” throughout.

Values taken from ChEMBL document CHEMBL1938312, “Design and combinatorial synthesis of a novel kinase-focused library using click chemistry-based fragment assembly” (Bioorg Med Chem Lett, 2012).
